The values below come from patent US9072729B2, “Method for treating fibrosis and cancer with imidazolium and imidazolinium compounds” (Agency for Science, Technology and Research, priority 2008, dated 2015).

The subject of series [1] is col1a1, fibronectin, GFAP, SMAA, TGF-β1, TGFβ RI protein expression. The series can be described thus: Western blotting of fibrotic marker proteins in HSC T6 cells. Format: cell-based, rat. To be noted: DBZIM 100 μM, TDBZIM 50 μM, 48 h. How it is done:
FIG. 8. […] The target proteins were recognized by the respective antibodies, and visualized by the ECL method. The membrane was stripped and re-probed for α-tubulin as the loading control. FIG. 13. […] DPIM (2 mM), EGCG (25 μM) and DBZIM (100 μM) were dissolved in H2O. Alpha-tubulin was used as the loading control. Densitometric measurement of protein band intensity was normalized against the respective vehicle control. (B) Relative densitometric quantification of protein band intensity. The vehicle treated sample was normalized to 1. Protein extracts were prepared by lysing a cell pellet in 10 volumes of boiled 1% sodium dodecyl sulfate (SDS) (90-95° C.) for 10 min for GFAP, or using NE-PER nuclear and cytoplasmic extraction reagents from Pierce (IL, USA) for nuclear proteins, or RIPA (Pierce, Ill., USA) for SMAA, fibronectin, collagen αI(I), TGF-β1 and TGFβ RI. Protein content was quantified using a BCA kit (Pierce, Ill., USA). 15 μg of total protein were resolved in 4-12% gradient SDS/polyacrylamide gel electrophoresis (PAGE) gel, and transferred to a nitrocellular membrane. The membrane was then probed with primary antibodies against GFAP (Dako, Denmark), SMAA (Sigma, USA), procollagen αI(I), fibronectin, c-Jun, c-Fos, JunB, JunD, […] Cruz Biotechnology, CA, USA), NF-κB P65, TGF-β1 and TGFβ RI (Abeam, UK), and detected by horseradish peroxidase-conjugated secondary antibody (Santa Cruz Biotechnology, CA, USA). […] Protein bands were recorded on X-ray film by reacting with ECL chemiluminescence reagents (Amersham Biosciences, NJ, USA). Alpha-tubulin (Abeam, UK) was used as the loading control for total protein, and Tata binding protein (TBP) (Abeam, UK) was used as the loading control for nuclear protein.
A general note: Immunoblotting shows a protein as a band on a membrane.

The test system of series [2] is liver fibrosis induced by bile duct ligation (BDL). Description: Liver fibrosis in mice induced by bile duct ligation (BDL). Format: in vivo, mouse. To be noted: for liver fibrosis (Sirius Red collagen): drinking water, 4 weeks, DBZIM 10 mg/L, DPIM 1 g/L. How it is done: FIG. 15 Effect of DBZIM and DPIM on liver fibrosis in mice. DBZIM was tested on mice induced by (a) liver toxin thioacetamide (TAA) or by (b) bile duct ligation (BDL). DPIM was also tested on mice induced by TAA (data not shown)) or by (c) bile duct ligation (BDL).
FIG. 16. Representative of images of Sirius red staining in liver sections from different DPIM compound treated group mice. Each treated group had 6-8 mice, except for 500 mg/l treated group, which had only one mouse in the group. Red staining areas represent collagen deposits. (A) sham operated, (B) sham operated+DPIM 1 g/l for 4 weeks, (C) BDL for 4 weeks, (D) BDL 4 weeks+500 mg/l DPIM treatment, (E) BDL 4 weeks+750 mg/l DPIM treatment, and (F) BDL 4 weeks+1 g/l DPIM treatment.
FIG. 17. Percentage of Sirius red staining areas. Sirius red staining areas from different treatment group mice were quantified with Image J software, at least 6 different areas from left and middle lobes of liver of each mouse were covered. *P<0.05, BDL vs. DPIM treated groups; # P<0.05, 750 mg/l vs. 1 g/l treated groups.
FIG. 18. Liver weights of different treatment groups. Each group consisted of 6-8 mice which were 10-12 weeks old at the start of surgery procedure. *P<0.05, sham operated control group vs: BDL 4 weeks, **P<0.05, DPIM compound treated groups vs; BDL weeks group, # P<0.05, 750 mg/l DPIM treated group vs. 1 g/l DPIM treated group.
FIG. 19. Representative images of H&E staining of liver sections. (A) control group; (B) BDL 4 weeks group; and (C) BDL 4 weeks+DPIM 1 g/l treatment group.
FIG. 20. Quantitative real-time PCR for collagen 1a1 mRNA. DPIM reduced collagen 1a1 mRNA.
For the liver toxin thioacetamide (TAA) model, TAA was given by i.p. injection at 200 mg/kg body weight, 3 times per week, for 12 weeks, to induce hepatic fibrosis in mice. For the bile duct ligation model (BDL), adult mice were anesthetized with Ketamine (150 mg/kg)/Xylazine (10 mg/kg) via i.p. injection. An abdominal incision at the midline is made to expose the common bile conduct, which was then ligated using 5-0 silk suture. In the control animal, the bile duct is exposed, but not ligated. DBZIM or DPIM was provided to the mice in drinking water at concentrations from 1 to 1000 mg/liter. The collagen content in the fibrotic liver was assessed by the Sirius Red staining of the liver tissue sections.
Male FVB/N mice (8-10 weeks old) housed in a specific pathogen-free (SFP) facility on a 12 hour dark-light cycle and with free access to water and diet were used in the study. The animal experiment protocol was approved by the institutional animal care and use committee (IACUC), the Biomedical Research Council (BMRC) of Singapore.
Cholestatic fibrosis was induced by BDL, briefly, mice were anesthetized with intraperitoneal injection of ketamine (150 mg/kg) and xylazine (10 mg/kg), after midline laparotomy, the common bile duct was ligated twice with 5-0 silk suture. The sham operation was performed similarly except that bile duct was not double ligated. The experimental mice were divided into four groups: 1) control only (sham operated, but no BDL); 2) control+DPIM; 3) BDL only; 4) BDL+DPIM. Each group consists of 6-8 mice. DPIM compound for treatment was supplied in the drinking water at three concentrations, 500 mg/l, 750 mg/l, 1 g/l, respectively. The drinking water containing DPIM was changed weekly. It was observed that on average each mouse (normal or operated) drank approximately 3-4 ml plain or DPIM-containing water every day. […] The compound treatment was started on the third day after animals recovered from the BDL procedure. After 4 weeks, livers were removed from mice for fixation 10% formalin, subsequently embedded in paraffin.
For consistency, paraffin-sections prepared from the left and median lobes were stained with Sirius-Red to visualize the collagen content. […]

For “1,3,5-tris(4-methyl-imidazolium)-linked cyclophane.3Br [TDBZIM]”, in series [1], the SMAA protein expression result was “enhanced”; the “procollagen αI(I) and fibronectin protein expression” value was “attenuated procollagen αI(I) and fibronectin significantly”.
On to `[Br-].c1ccc(Cn2cc[n+](Cc3ccccc3)c2)cc1` [DBZIM, 1,3-bisbenzylimidazolium bromide], for which, in series [1], the SMAA protein expression entry is “suppressed”; the “procollagen αI(I) and fibronectin protein expression” value is “attenuated procollagen αI(I) and fibronectin significantly”. In series [2] (BDL model), the “liver fibrosis (Sirius Red collagen)” value is “attenuated fibrosis”.
In the case of `CC(C)n1cc[n+](C(C)C)c1.F[B-](F)(F)F` [DPIM, 1,3-diisopropylimidazolium tetrafluoroborate], the liver weight came to 1.97 ± 0.44 g in series [2] (BDL 4 weeks + 750 mg/l (BDL alone 2.74±0.51 g)), 1.65 ± 0.20 g in series [2] (BDL 4 weeks + 1 g/l (BDL alone 2.74±0.51 g)) and 1.56 ± 0.08 g in series [2] (sham operated + DPIM for 4 weeks (sham 1.50±0.19 g)). The “Sirius-Red positive areas (percentage of staining areas; BDL alone 8.69)” value in series [2] (BDL 4 weeks + 750 mg/l in drinking water) was 4.33%; in series [2] (BDL 4 weeks + 1 g/l in drinking water), 3.42%. Also, the “proliferative cells around the sinusoidal area (H&E staining)” value in series [2] (BDL 4 weeks + 1 g/l) is reported as “reduced the number of proliferative cells”. Moreover, the “liver collagen 1a1 mRNA” value in series [2] (BDL model) is “reduced the collagen 1a1 mRNA”. In series [2] (BDL model), the “liver fibrosis (Sirius Red collagen)” value is reported as “displayed its effect”. In series [2] (sham operated + 1 g/l for 4 weeks), the “collagen build-up in sham mice” value is listed as “did not induce any significant build-up of collagen”.
